Experimental findings from patent EP0129461B1, “Derivatives of isoindoledicarboxylic acids, their preparation and pharmaceutical compositions thereof” (ADIR, priority 1983, dated 1984) are described below.

Structures are written as SMILES.

The subject of this test is angiotensine convertase. In words: Inhibition of circulating angiotensin convertase in the anaesthetised rat (protocol of D.M. Gross et al.), i.v. dosing. The conditions noted are these: I.V. dose inhibiting 50% of the activity of the angiotensine convertase present in the circulation. In kind it is in vivo. An excerpt: Les composés de l'invention ont été soumis à une étude pharmacologique chez le rat anesthésié selon le protocole décrit par D.M. GROSS et coll. [J. Phar- macol. and Exp. Ther. 216, 552-557, 1981 )].
La dose I.V. capable d'inhiber 50% de l'activité de l'angiotensine convertase présente dans la circulation (DE50) a été déterminée.
Regarding `CCC[C@H](N[C@@H](C)C(=O)N1CC2CCCCC2[C@@H]1C(=O)O)C(=O)OCC` (stereo partly drawn) [Exemple IV, [N-<(S)-éthoxycarbonyl-1 butyl>-(S)alanyl]-2 (R)-carboxy-1 perhydroisoindole], the DE50 is reported as >300 mg/kg. With `CCC[C@H](N[C@@H](C)C(=O)N1Cc2ccccc2[C@H]1C(=O)O)C(=O)OCC` [Exemple I] the figure was 0,022 mg/kg; with `CCC[C@H](N[C@@H](C)C(=O)N1Cc2ccccc2[C@@H]1C(=O)O)C(=O)OCC` [II, (N-((S)-éthoxycarbonyl-1 butyl)-(S)alanyl]-2 (R)-carboxy-1 isoindoline], 0,170 mg/kg. On to `CCC[C@H](N[C@@H](C)C(=O)N1CC2CCCCC2[C@H]1C(=O)O)C(=O)OCC` (stereo partly drawn) [III, [N-<(S)-éthoxycarbonyl-1 butyl)-(S) alanyl]-2 (S)-carboxy-1 perhydroisoindole, maléate], for which the DE50 is recorded as 0,020 mg/kg.
